Results taken from article PMC2992884 (Cell metabolism, 2010).

Molecular target: T1, ACS-3 (Caenorhabditis elegans, UniProt O44560)
T1 sequence (O44560 1-653): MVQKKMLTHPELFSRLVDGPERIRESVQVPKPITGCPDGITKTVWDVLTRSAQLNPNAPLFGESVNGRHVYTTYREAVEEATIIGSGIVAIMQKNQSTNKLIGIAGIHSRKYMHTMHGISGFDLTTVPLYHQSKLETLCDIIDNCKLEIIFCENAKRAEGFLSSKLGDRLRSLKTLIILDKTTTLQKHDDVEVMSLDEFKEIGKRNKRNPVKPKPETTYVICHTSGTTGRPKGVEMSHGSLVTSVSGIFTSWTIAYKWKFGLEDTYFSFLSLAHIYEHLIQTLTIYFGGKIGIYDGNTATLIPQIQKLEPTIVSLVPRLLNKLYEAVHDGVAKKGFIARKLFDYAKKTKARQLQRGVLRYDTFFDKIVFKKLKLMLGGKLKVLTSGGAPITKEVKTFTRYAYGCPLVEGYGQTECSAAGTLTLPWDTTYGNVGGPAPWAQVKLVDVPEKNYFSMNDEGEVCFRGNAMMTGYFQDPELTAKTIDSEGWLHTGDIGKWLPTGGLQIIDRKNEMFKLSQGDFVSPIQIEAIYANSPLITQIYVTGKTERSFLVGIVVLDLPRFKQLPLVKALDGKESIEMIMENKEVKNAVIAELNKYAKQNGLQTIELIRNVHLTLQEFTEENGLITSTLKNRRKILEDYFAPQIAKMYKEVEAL
Test: acyl-CoA oxidase/catalase coupled colorimetric assay, […] nm
Type: biochemical
Conditions: with free long-chain fatty acid (18-carbon preferred)

SMILES: CC(C)(COP(=O)(O)OP(=O)(O)OC[C@H]1O[C@@H](n2cnc3c(N)ncnc32)[C@H](O)[C@@H]1OP(=O)(O)O)[C@@H](O)C(=O)NCCC(=O)NCCS [CoA]
- acyl-CoA oxidase/catalase coupled colorimetric assay, 550 nm: ACS activity generates acyl-CoA species from free fatty acid and CoA
